Measurements published in US20130023534A1, “PYRAZOLYL-PYRIMIDINES AS KINASE INHIBITORS” (priority 2010, published 2013).

Target: T1, RIPK2 (Homo sapiens, UniProt O43353)
T1 construct: Full length FLAG His tagged RIPK2 was purified from a Baculovirus expression system; FLAG (N); 6His (N); made in house; host or cells: Spodoptera frugiperda (Sf9) insect cells, baculovirus
Assay: Fluorescent polarization based binding assay at the ATP binding pocket of RIPK2
Settings: full length FLAG His tagged RIPK2; competition with fluorescently labeled ATP competitive ligand (5 nM); mean of a minimum of 2 experiments; read-out: mean pIC50 (converted)
Text: A fluorescent polarization based binding assay was developed to quantitate interaction of novel test compounds at the ATP binding pocket of RIPK2, by competition with a fluorescently labeled ATP competitive ligand. Full length FLAG His tagged RIPK2 was purified from a Baculovirus expression system and was used at a final assay concentration of twice the KDapparent. A fluorescent labeled ligand (5-({[2-({[3-({4-[(5-hydroxy-2-methylphenyl)amino]-2-pyrimidinyl}amino)phenyl]carbonyl}amino)ethyl]amino}carbonyl)-2-(6-hydroxy-3-oxo-3H-xanthen-9-yl)benzoic acid, prepared as described below) was used at a final assay concentration of 5 nM. Both the enzyme and ligand were prepared in solutions in 50 mM HEPES pH7.5, 150 mM NaCl, 10 mM MgCl2, 1 mM DTT, and 1 mM CHAPS. Test compounds were prepared in 100% DMSO and 100 nL was dispensed to individual wells of a multiwell plate. Next, 5 ul RIPK2 was added to the test compounds at twice the final assay concentration, and incubated at room temperature for 10 minutes. […] Finally, samples were read on an instrument capable of measuring fluorescent polarization. Test compound inhibition was expressed as percent (%) inhibition of internal assay controls.
For concentration response experiments, normalized data were fit and pIC50s determined using conventional techniques. […]

T1 sequence (O43353 whole entry): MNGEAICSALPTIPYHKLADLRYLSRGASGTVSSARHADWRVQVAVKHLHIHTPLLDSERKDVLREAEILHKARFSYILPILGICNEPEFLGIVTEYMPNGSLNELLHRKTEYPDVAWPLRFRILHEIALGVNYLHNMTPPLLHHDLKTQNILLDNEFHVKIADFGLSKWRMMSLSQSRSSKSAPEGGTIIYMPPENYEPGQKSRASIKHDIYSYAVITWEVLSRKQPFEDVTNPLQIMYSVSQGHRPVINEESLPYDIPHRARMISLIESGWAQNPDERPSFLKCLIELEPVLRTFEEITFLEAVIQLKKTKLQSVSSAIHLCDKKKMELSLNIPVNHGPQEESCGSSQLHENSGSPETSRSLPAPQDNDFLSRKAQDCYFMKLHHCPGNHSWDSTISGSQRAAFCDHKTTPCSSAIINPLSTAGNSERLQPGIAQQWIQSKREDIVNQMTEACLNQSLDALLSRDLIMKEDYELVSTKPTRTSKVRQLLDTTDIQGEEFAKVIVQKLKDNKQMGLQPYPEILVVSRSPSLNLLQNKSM

IC50 [µM]	SMILES
0.251	COc1ccc(-n2nc(C(F)(F)F)cc2Nc2ccnc(Nc3ccc(OC)c(OC)c3)n2)cc1 [Example 21, N^2-[3,4-bis(methyloxy)phenyl]-N^4-[1-[4-(methyloxy)phenyl]-3-(trifluoromethyl)-1H-pyrazol-5-yl]-2,4-pyrimidinediamine]
0.01	COc1cc(Nc2nccc(Nc3[nH]nc(C)c3C)n2)cc(OC)c1OC [Example 1, N^4-(3,4-Dimethyl-1H-pyrazol-5-yl)-N^2-[3,4,5-tris(methyloxy)phenyl]-2,4-pyrimidinediamine]
